Reference: article PMC10726481, “New Teixobactin Analogues with a Total Lactam Ring” (ACS Medicinal Chemistry Letters, 2023)
In brackets after ≈: the same amount, converted by molar mass. Bridge positions count the residues as written; N and C are the ends. Square brackets hold non-standard residues; d marks the D form. Peptide text beside a SMILES is read from it. d(aIle) = CC[C@H](C)[C@@H](N)C(=O)O; dNMeF = CN[C@H](Cc1ccccc1)C(=O)O; Nle = CCCC[C@H](N)C(=O)O; dDap = NC[C@@H](N)C(=O)O

Legend:
C. glabrata ATCC 15126 = assay: microbe, parasite or virus in culture; format: cell-based; conditions: for MIC C. glabrata ATCC 15126: ATCC 15126, 24 h
Experimental: (§1) . The minimum inhibitory concentrations (MICs) of synthesized compounds were assessed according to the broth microdilution method using 96-well plates, in reference to the protocol of the Clinical and Laboratory Standards Institute (CLSI).[32],[33] In assays, reference strains of the bacteria S. aureus ATCC 25923, S. epidermidis ATCC 14990, and E. coli ATCC 25922 and the fungus C. glabrata ATCC 15126 were used, all from The Polish Collection of Microorganism, Polish Academy of Sciences, Wrocław, Poland. Bacteria at initial inoculums of 0.5 × 10^5 CFU/mL in Mueller–Hinton Broth (MHB), and fungus at initial inoculums of 2 × 10^3 CFU/mL in RPMI-1640, were exposed to the serial dilution of compounds. Tested concentrations were in the range 1–512 μg/mL. 96-well plates with microorganisms and tested substances were incubated at 37 °C for 18 h for bacteria and for 24 h for C. glabrata. The MIC values were taken as the lowest concentrations at which visible growth of microorganisms was inhibited. The minimum inhibitory concentrations (MICs) for MRSA ATCC 33591 were tested at the University of Liverpool. Bacterial cultures were grown overnight in Mueller–Hinton Agar (MHA) plates and adjusted to a final concentration of 10^5–10^6 CFU/mL. 100 μL of inoculum in Meuller–Hinton broth (MHB) was mixed with an equal volume of peptides (dissolved in MHB) at 2× their concentration in a 96-well plate. […] The final peptide concentrations ranged from 0.0625–32 μg/mL (the lower range 0.031–16 μg/mL was used). Positive and negative controls contained 200 μL of inoculum without any peptide dissolved in broth, respectively. The 96-well plates were then incubated at 37 °C for 24 h. All the experiments were performed in two independent duplicates, and the MIC was determined as the lowest concentration in which no visible growth was observed.

S. aureus ATCC 25923 = format: cell-based; conditions: ATCC 25923, 18 h
Experimental: (§2) . The minimum inhibitory concentrations (MICs) of synthesized compounds were assessed according to the broth microdilution method using 96-well plates, in reference to the protocol of the Clinical and Laboratory Standards Institute (CLSI).[32],[33] In assays, reference strains of the bacteria S. aureus ATCC 25923, S. epidermidis ATCC 14990, and E. coli ATCC 25922 and the fungus C. glabrata ATCC 15126 were used, all from The Polish Collection of Microorganism, Polish Academy of Sciences, Wrocław, Poland. Bacteria at initial inoculums of 0.5 × 10^5 CFU/mL in Mueller–Hinton Broth (MHB), and fungus at initial inoculums of 2 × 10^3 CFU/mL in RPMI-1640, were exposed to the serial dilution of compounds. Tested concentrations were in the range 1–512 μg/mL. 96-well plates with microorganisms and tested substances were incubated at 37 °C for 18 h for bacteria and for 24 h for C. glabrata. The MIC values were taken as the lowest concentrations at which visible growth of microorganisms was inhibited. The minimum inhibitory concentrations (MICs) for MRSA ATCC 33591 were tested at the University of Liverpool. Bacterial cultures were grown overnight in Mueller–Hinton Agar (MHA) plates and adjusted to a final concentration of 10^5–10^6 CFU/mL. 100 μL of inoculum in Meuller–Hinton broth (MHB) was mixed with an equal volume of peptides (dissolved in MHB) at 2× their concentration in a 96-well plate. […] Positive and negative controls contained 200 μL of inoculum without any peptide dissolved in broth, respectively. The 96-well plates were then incubated at 37 °C for 24 h. All the experiments were performed in two independent duplicates, and the MIC was determined as the lowest concentration in which no visible growth was observed.

[1] = tested on: S. epidermidis ATCC 14990; format: cell-based; conditions: ATCC 14990, 18 h
Experimental: as §2

E. coli ATCC 25922 = assay: microbe, parasite or virus in culture; format: cell-based; conditions: for MIC E. coli ATCC 25922: ATCC 25922, 18 h
Experimental: as §1

MRSA ATCC 33591 = format: cell-based, methicillin-resistant S. aureus; conditions: ATCC 33591, 24 h
Experimental: . The minimum inhibitory concentrations (MICs) of synthesized compounds were assessed according to the broth microdilution method using 96-well plates, in reference to the protocol of the Clinical and Laboratory Standards Institute (CLSI).[32],[33] In assays, reference strains of the bacteria S. aureus ATCC 25923, S. epidermidis ATCC 14990, and E. coli ATCC 25922 and the fungus C. glabrata ATCC 15126 were used, all from The Polish Collection of Microorganism, Polish Academy of Sciences, Wrocław, Poland. Bacteria at initial inoculums of 0.5 × 10^5 CFU/mL in Mueller–Hinton Broth (MHB), and fungus at initial inoculums of 2 × 10^3 CFU/mL in RPMI-1640, were exposed to the serial dilution of compounds. Tested concentrations were in the range 1–512 μg/mL. 96-well plates with microorganisms and tested substances were incubated at 37 °C for 18 h for bacteria and for 24 h for C. glabrata. The MIC values were taken as the lowest concentrations at which visible growth of microorganisms was inhibited. The minimum inhibitory concentrations (MICs) for MRSA ATCC 33591 were tested at the University of Liverpool. Bacterial cultures were grown overnight in Mueller–Hinton Agar (MHA) plates and adjusted to a final concentration of 10^5–10^6 CFU/mL. […] All the experiments were performed in two independent duplicates, and the MIC was determined as the lowest concentration in which no visible growth was observed.

MRSA = conditions: compared with the 4 μg/mL of the analogues; strain not given, context MRSA; cited from earlier work
Experimental: To determine the antimicrobial activity of these analogues, the MIC test using the microdilution method was chosen. Analogues were tested on three different types of bacteria: Gram-positive S. aureus and S. epidermidis, Gram-negative E. coli and fungus C. glabrata (Table 1) including the MRSA ATCC 33591.

`CC(=O)N1CCN(c2ccc(OCC3COC(Cn4ccnc4)(c4ccc(Cl)cc4Cl)O3)cc2)CC1` (stereo not drawn) [Ketoconazole, ketoconazole, reference compound] gave an MIC (C. glabrata ATCC 15126; Nakaseomyces glabratus, ATCC15126, CLSI broth microdilution, 96-well plates, RPMI-1640, inoculum 2 × 10^3 CFU/mL, 37 °C for 24 h, tested 1–512 μg/mL, visible growth) of 0.62 µg/mL (≈ 1.17 µM).

For `CC[C@H](C)[C@@H]1NC(=O)[C@H](CCCNC(=N)N)NC(=O)[C@H](C)NC(=O)[C@H](NC(=O)[C@H](CO)NC(=O)[C@@H](NC(=O)[C@H](NC(=O)[C@@H](CCC(N)=O)NC(=O)[C@H](CO)NC(=O)[C@@H](NC(=O)[C@@H](Cc2ccccc2)NC)[C@@H](C)CC)[C@@H](C)CC)[C@@H](C)CC)CNC1=O` [TXGS-1, D-Dap8,Arg10-teixobactin, reference compound], the “MIC S. aureus ATCC 25923” value (S. aureus ATCC 25923) was 32 µg/mL (≈ 26 µM), the “MIC S. epidermidis ATCC 14990” value [1] was 256 µg/mL (≈ 208 µM) and the “MIC C. glabrata ATCC 15126” value (C. glabrata ATCC 15126) was >512 µg/mL. For the same molecule, the “MIC E. coli ATCC 25922” value (E. coli ATCC 25922) was >512 µg/mL.

For `CC[C@H](C)[C@H](NC(=O)[C@H](N)Cc1ccccc1)C(=O)N[C@@H](CO)C(=O)N[C@H](CCC(N)=O)C(=O)N[C@@H](C(=O)N[C@H](C(=O)N[C@@H](CO)C(=O)N[C@@H]1CNC(=O)[C@H]([C@@H](C)CC)NC(=O)[C@H](CCCNC(=N)N)NC(=O)[C@H](C)NC1=O)[C@@H](C)CC)[C@@H](C)CC` [TXGS-2], the “MIC S. aureus ATCC 25923” value (S. aureus ATCC 25923) was 32 µg/mL (≈ 26.3 µM), the “MIC S. epidermidis ATCC 14990” value [1] was 128 µg/mL (≈ 105 µM) and the “MIC C. glabrata ATCC 15126” value (C. glabrata ATCC 15126) was >512 µg/mL. The “MIC E. coli ATCC 25922” value (E. coli ATCC 25922) was >512 µg/mL.

With `CCCC[C@@H]1NC(=O)[C@H](CCCNC(=N)N)NC(=O)[C@H](C)NC(=O)[C@H](NC(=O)[C@H](CO)NC(=O)[C@@H](NC(=O)[C@H](NC(=O)[C@@H](CCC(N)=O)NC(=O)[C@H](CO)NC(=O)[C@@H](NC(=O)[C@@H](Cc2ccccc2)NC)[C@@H](C)CC)[C@@H](C)CC)[C@@H](C)CC)CNC1=O` [TXGS-3] the “MIC S. aureus ATCC 25923” value (S. aureus ATCC 25923) was 4 µg/mL (≈ 3.25 µM), the “MIC S. epidermidis ATCC 14990” value [1] was 64 µg/mL (≈ 52.1 µM) and the “MIC C. glabrata ATCC 15126” value (C. glabrata ATCC 15126) was >512 µg/mL. For the same molecule, the “MIC E. coli ATCC 25922” value (E. coli ATCC 25922) was >512 µg/mL and the “MIC MRSA ATCC 33591” value (MRSA ATCC 33591) was 4 µg/mL (≈ 3.25 µM).

In the case of `CC[C@H](C)[C@@H]1NC(=O)[C@H](CCCNC(=N)N)NC(=O)[C@H](C)NC(=O)[C@H](NC(=O)[C@H](CO)NC(=O)[C@@H](NC(=O)[C@H](NC(=O)[C@@H](CCCNC(=N)N)NC(=O)[C@H](CO)NC(=O)[C@@H](NC(=O)[C@@H](Cc2ccccc2)NC)[C@@H](C)CC)[C@@H](C)CC)[C@@H](C)CC)CNC1=O` [TXGS-5] (H-[dNMeF]IS[dR][d(aIle)]IS[dDap]ARI; lactam 8-C), the “MIC S. aureus ATCC 25923” value (S. aureus ATCC 25923) is reported as 256 µg/mL (≈ 204 µM), the “MIC S. epidermidis ATCC 14990” value [1] is reported as 256 µg/mL (≈ 204 µM) and the “MIC C. glabrata ATCC 15126” value (C. glabrata ATCC 15126) is reported as 512 µg/mL (≈ 407 µM). For the same molecule, the “MIC E. coli ATCC 25922” value (E. coli ATCC 25922) was 256 µg/mL (≈ 204 µM).

With `CC[C@H](C)[C@H](NC(=O)[C@H](N)Cc1ccccc1)C(=O)N[C@@H](CO)C(=O)N[C@H](CCCNC(=N)N)C(=O)N[C@@H](C(=O)N[C@H](C(=O)N[C@@H](CO)C(=O)N[C@@H]1CNC(=O)[C@H]([C@@H](C)CC)NC(=O)[C@H](CCCNC(=N)N)NC(=O)[C@H](C)NC1=O)[C@@H](C)CC)[C@@H](C)CC` [TXGS-6] the “MIC S. aureus ATCC 25923” value (S. aureus ATCC 25923) was 64 µg/mL (≈ 51.5 µM), the “MIC S. epidermidis ATCC 14990” value [1] was 64 µg/mL (≈ 51.5 µM) and the “MIC C. glabrata ATCC 15126” value (C. glabrata ATCC 15126) was >512 µg/mL. For the same molecule, the “MIC E. coli ATCC 25922” value (E. coli ATCC 25922) was >512 µg/mL.

With `CCCC[C@@H]1NC(=O)[C@H](CCCNC(=N)N)NC(=O)[C@H](C)NC(=O)[C@H](NC(=O)[C@H](CO)NC(=O)[C@@H](NC(=O)[C@H](NC(=O)[C@@H](CCCNC(=N)N)NC(=O)[C@H](CO)NC(=O)[C@@H](NC(=O)[C@@H](Cc2ccccc2)NC)[C@@H](C)CC)[C@@H](C)CC)[C@@H](C)CC)CNC1=O` [TXGS-7] (H-[dNMeF]IS[dR][d(aIle)]IS[dDap]AR[Nle]; lactam 8-C) the “MIC S. aureus ATCC 25923” value (S. aureus ATCC 25923) was 4 µg/mL (≈ 3.18 µM), the “MIC S. epidermidis ATCC 14990” value [1] was 8 µg/mL (≈ 6.36 µM) and the “MIC C. glabrata ATCC 15126” value (C. glabrata ATCC 15126) was 64 µg/mL (≈ 50.9 µM). The “MIC E. coli ATCC 25922” value (E. coli ATCC 25922) was 32 µg/mL (≈ 25.4 µM) and the “MIC MRSA ATCC 33591” value (MRSA ATCC 33591) was 4 µg/mL (≈ 3.18 µM).

With `CCCC[C@@H]1NC(=O)[C@H](CCCNC(=N)N)NC(=O)[C@H](C)NC(=O)[C@H](NC(=O)[C@H](CO)NC(=O)[C@@H](NC(=O)[C@H](NC(=O)[C@@H](CCCNC(=N)N)NC(=O)[C@H](CO)NC(=O)[C@@H](NC(=O)[C@H](N)Cc2ccccc2)[C@@H](C)CC)[C@@H](C)CC)[C@@H](C)CC)CNC1=O` [TXGS-8] (H-[dF]IS[dR][d(aIle)]IS[dDap]AR[Nle]; lactam 8-C) the “MIC S. aureus ATCC 25923” value (S. aureus ATCC 25923) was 8 µg/mL (≈ 6.43 µM), the “MIC S. epidermidis ATCC 14990” value [1] was 8 µg/mL (≈ 6.43 µM) and the “MIC C. glabrata ATCC 15126” value (C. glabrata ATCC 15126) was 128 µg/mL (≈ 103 µM). The “MIC E. coli ATCC 25922” value (E. coli ATCC 25922) was 64 µg/mL (≈ 51.5 µM).

In the case of `CN[C@H](CC(C)C)C(=O)N[C@H]1C(=O)N[C@@H](CC(N)=O)C(=O)N[C@H]2C(=O)N[C@H]3C(=O)N[C@H](C(=O)N[C@H](C(=O)O)c4cc(O)cc(O)c4-c4cc3ccc4O)[C@H](O)c3ccc(c(Cl)c3)Oc3cc2cc(c3O[C@@H]2O[C@H](CO)[C@@H](O)[C@H](O)[C@H]2O[C@H]2C[C@](C)(N)[C@H](O)[C@H](C)O2)Oc2ccc(cc2Cl)[C@H]1O` [Vancomicin, vancomycin, reference compound], the MIC (E. coli ATCC 25922; Escherichia coli, ATCC25922, 18 h, read-out: MIC E. coli ATCC 25922) is reported as > 64 µg/mL.

For teixobactin, the “potency (MIC) of natural teixobactin” value (MRSA) is listed as 0.25 µg/mL.
